According to patent US20110053225A1, “MULTI[…]” (GE […]-SCIENCES AB, priority 2008, published 2011):

What was measured:
Test in all cases: Cu(II)-VBIDA affinity for the tag (Table 1)
Type in all cases: binding
Details in all cases: r^2 ≈ 0.98
[1] = target: green fluorescent protein (GFP) variant GFP25, tag MEFHRPMRH, SEQ ID NO: 8
Excerpt: (§1) In this figure the kD data is given in millimolar not micromolar units.
(§2) These values are suitably low for such tags to be used in a separation process with binding of target at high enough affinity to allow for ease of washing and recovery.

[2] = target: green fluorescent protein (GFP) variant GFP27, tag MEFHWVARH, SEQ ID NO: 10
Excerpt: as §1, §2

[3] = target: green fluorescent protein (GFP), 6His-GFP, tag […], SEQ ID NO: 14
Excerpt: as §1, §2

[4] = target: green fluorescent protein (GFP) variant GFP30, tag MEFHAHHLH, SEQ ID NO: 13
Excerpt: as §1, §2

[5] = target: green fluorescent protein (GFP) variant GFP28, tag MEFHITGHH, SEQ ID NO: 11
Excerpt: as §1

[6] = target: green fluorescent protein (GFP), n-GFP (native, N-terminus MEFELGT, SEQ ID NO: 1)
Excerpt: as §1

[7] = target: green fluorescent protein (GFP) variant GFP2, tag MEFHSVGMH, SEQ ID NO: 3
Excerpt: as §1

[8] = target: green fluorescent protein (GFP) variant GFP12, tag MEFHSVGLH, SEQ ID NO: 6
Excerpt: as §1

[9] = target: green fluorescent protein (GFP) variant GFP29, tag MEFHHSLVH, SEQ ID NO: 12
Excerpt: as §1

[10] = target: green fluorescent protein (GFP) variant GFP24, tag MEFHLRARH, SEQ ID NO: 7
Excerpt: as §1

For `C=Cc1ccc(CN(CC(=O)O)CC(=O)O)cc1.[Cu+2]` [Cu(II)-VBIDA, N-(4-vinyl)-benzyl iminodiacetic acid], which Kd [1] is on record?
Its Kd is 140 µM.

What about the Kd [2] of the same compound?
The Kd was 120 µM.

And the Kd [3]?
Its Kd is 70 µM.

And the Kd [4]?
The Kd was 90 µM.

What about the Kd [5] of the same compound?
The Kd was 110 µM.

And the Kd [6]?
The Kd was 1680 µM.

And the Kd [7]?
Its Kd is 1200 µM.

And the Kd [8]?
The Kd was 200 µM.

What about the Kd [9] of the same compound?
Its Kd is 100 µM.

What about the Kd [10] of the same compound?
The Kd was 150 µM.
